Assay results published in patent US4731377A, “Antitumor cyclic peroxides” (Harbor Branch Oceanographic Institute, Inc., priority 1986, dated 1988).
Values after ≈ are worked out from the molar mass of the structure shown.

Tested on: P-388 mouse leukemia cells
Assay: P388 mouse leukemia cell cytotoxicity assay (24-well plate screening / tube assay)
Type: cell-based
Details: for concentration inhibiting cell growth relative to the concentration required for inhibition by chondrillin (composition 1): 50% inhibition stated for II/2 and III/3, P388 mouse leukemia cells; for IC50: P388, P-388 mouse leukemia cells, 48 hours incubation, 5% CO2, read-out: P388 IC50, Inhibiting concentration 50% of cell growth; for antitumor activity ranking among the compositions tested: Table 2, P388, result in words; for cytotoxic in vitro against P-388 murine leukemia cells: result in words
Source text: The following assay method was utilized to illustrate the antitumor effectiveness of the compositions of Formulae II - VI corresponding to compositions 2-5 of the examples. Data is also provided for the chondrillin composition (1) which has also been isolated according to the process of the invention.
388 MOUSE LEUKEMIA CELL CYTOXICITY ASSAY 24-WELL PLATE SCREENING ASSAY AND TUBE ASSAY PROTOCOL
Media--Dulbeccos with glucose and pyruvate (Biologos, Inc) with 10% horse serum, (Biologos, Inc) and 1.0 ug/ml gentamicin (Gibco).
Cells - P-388 mouse leukemia cells (American Type Culture Collection) in media at a concentration of 5×10^4 W cells/ml Sterile 24-well culture plates (Nunc) for screening or 12×75 mm glass culture tubes (Becton-Dickinson) for tube assay. Microdispenser with 1 to 5 ul increments (Drummond Scientific Co. Broomall PA).
Finnpipette with 5 to 50 μl increments and Finnpipette with 50 to 200 μl increments.
1. A sample of the composition to be assayed is added to each well or tube in an amount of from 200 ug/ml and 100 ug/ml for screening. For DDC of known active compounds use log concentrations from 100 ug/ml to 0.01 ug/ml for range-finding assay; when range has been determined, use five concentrations between highest and lowest active concentrations.
2. Add 2.0 ml of 5×10^4 cell suspension in media to each well or tube. Tubes are loosely covered with parafilm.
3 Incubate in 5% CO2 incubator 48 hours.
4. Visually read plates with inverted microscope, comparing with solvent control. Assign activity as follows:
Repeat all positive samples using tube assay.
5. For Tube assays--Mix tube well on vortex and remove 0.5 ml aliquot and add to 9.5 ml of diluent fluid (Isoton - Coulter) in Accuvette (Coulter) and mix well by inversion immediately before counting, taking care not to produce excessive bubbles. Count on Coulter Counter (Counter is set to count 0.5 ml of the solution; therefore counts may be converted to cell/ml in original assay tube by multiplying count by 40.
Positive control--Vinblastine or Vincristine in aqueous solution.
Always run a solvent control in duplicate in the last two wells of each plate or four tubes for each rack of 72 or less tubes. Also run four wells or tubes with media and cells only per run of plates or tubes. When using volumes of aqueous solutions greater than 200 μl, dry sample and bring up to desired concentration in media.
Compositions 1-5 of formulae I/1; II/2; III/3; IV/4; and V/5 are cytotoxic in vitro against P-388 murine leukemia cells.

Row | Compound | concentration inhibiting cell growth relative to the concentration required for inhibition by chondrillin (composition 1) | IC50 | antitumor activity ranking among the compositions tested | cytotoxic in vitro against P-388 murine leukemia cells
1 | CC=CC=CCCCCCCC[C@]1(OC)C=C[C@@H](CC(=O)OC)OO1 (relative stereo) [Composition II/2] | 1% | 0.05 µg/mL (≈ 0.142 µM) | greatest antitumor activity of the compositions tested | cytotoxic
2 | CCCCCCCCCCCC[C@]1(OC)C=C[C@@H](CC(=O)OC)OO1 (relative stereo) [Composition III/3] | 1% | 0.05 µg/mL (≈ 0.14 µM) | greatest antitumor activity of the compositions tested | cytotoxic
3 | CC=CC=CCCCCCCCCC[C@]1(OC)C=C[C@@H](CC(=O)OC)OO1 (relative stereo) [Composition IV/4] | 2% | 0.1 µg/mL (≈ 0.263 µM) |  | cytotoxic
4 | CC=CCCCCCCCCC[C@]1(OC)C=C[C@@H](CC(=O)OC)OO1 (relative stereo) [Composition V/5] | 2% | 0.1 µg/mL (≈ 0.282 µM) |  | cytotoxic
5 | CCCCCCCCCCCCCCCCC1(OC)C=CC(CC(=O)OC)OO1 (stereo not shown) [Composition I/1, chondrillin, reference compound] |  | 5 µg/mL (≈ 12.1 µM) |  | cytotoxic
